In patent publication US12077503B2, “Substituted cyclic amides and their use as herbicides” (FMC CORPORATION, priority 2015, dated 2024):

Columns and labels:
Format in all cases: in vivo
[1] = test system: barnyardgrass (Echinochloa crus-galli); experiment: Test A preemergence; conditions: Echinochloa crus-galli, pre-emergence, 240 h; for pest or weed control at 125 g/ha: 125 g ai/ha, Preemergence, visual injury rating after approximately 10 d, read-out: Barnyardgrass plant response rating (0 to 100 scale, 0 is no effect, 100 is complete control); for pest or weed control at 500 g/ha: 500 g ai/ha, preemergence, visual injury rating about 10 d after treatment, 0 to 100 scale (0 no effect, 100 complete control), read-out: Barnyardgrass plant response rating
Procedure, shortened: (§1)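 Preemergence soil spray on seeded pots or post-emergence spray on 1–2 leaf plants, in loam–sand blend. Greenhouse ~10 d. Visual rating 0–100 against untreated plants.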

[2] = test system: Kochia (Kochia scoparia); experiment: Test A preemergence; conditions: Bassia scoparia, pre-emergence, 240 h; for pest or weed control at 125 g/ha: 125 g ai/ha, Preemergence, visual injury rating after approximately 10 d, read-out: Kochia plant response rating (0 to 100 scale, 0 is no effect, 100 is complete control); for pest or weed control at 500 g/ha: 500 g ai/ha, preemergence, visual injury rating about 10 d after treatment, 0 to 100 scale (0 no effect, 100 complete control), read-out: Kochia plant response rating
Procedure, shortened: as §1

[3] = test system: pigweed (Amaranthus retroflexus); experiment: Test A preemergence; conditions: Amaranthus retroflexus, pre-emergence, 240 h; for pest or weed control at 125 g/ha: 125 g ai/ha, Preemergence, visual injury rating after approximately 10 d, read-out: Pigweed plant response rating (0 to 100 scale, 0 is no effect, 100 is complete control); for pest or weed control at 500 g/ha: 500 g ai/ha, preemergence, visual injury rating about 10 d after treatment, 0 to 100 scale (0 no effect, 100 complete control), read-out: Pigweed plant response rating
[4] = test system: ryegrass, Italian (Italian ryegrass, Lolium multiflorum); experiment: Test A preemergence; conditions: Lolium multiflorum, pre-emergence, 240 h; for pest or weed control at 125 g/ha: 125 g ai/ha, Preemergence, visual injury rating after approximately 10 d, read-out: Ryegrass, Italian plant response rating (0 to 100 scale, 0 is no effect, 100 is complete control); for pest or weed control at 500 g/ha: 500 g ai/ha, preemergence, visual injury rating about 10 d after treatment, 0 to 100 scale (0 no effect, 100 complete control), read-out: Ryegrass, Italian plant response rating
Procedure, shortened: as §1

[5] = test system: ragweed (common ragweed, Ambrosia elatior); experiment: Test A preemergence; conditions: Ambrosia artemisiifolia, pre-emergence, 240 h; for pest or weed control at 125 g/ha: 125 g ai/ha, Preemergence, visual injury rating after approximately 10 d, read-out: Ragweed plant response rating (0 to 100 scale, 0 is no effect, 100 is complete control); for pest or weed control at 500 g/ha: 500 g ai/ha, preemergence, visual injury rating about 10 d after treatment, 0 to 100 scale (0 no effect, 100 complete control), read-out: Ragweed plant response rating
Procedure, shortened: as §1

[6] = test system: giant foxtail (Setaria faberii); experiment: Test A preemergence; conditions: Setaria faberi, pre-emergence, 240 h; for pest or weed control at 125 g/ha: 125 g ai/ha, Preemergence, visual injury rating after approximately 10 d, read-out: Foxtail, Giant plant response rating (0 to 100 scale, 0 is no effect, 100 is complete control); for pest or weed control at 500 g/ha: 500 g ai/ha, preemergence, visual injury rating about 10 d after treatment, 0 to 100 scale (0 no effect, 100 complete control), read-out: Foxtail, Giant plant response rating
Procedure, shortened: as §1

[7] = test system: wheat (Triticum aestivum); experiment: Test A postemergence; conditions: Triticum aestivum, post-emergence, 240 h, postemergence, approx. 10 d; for plant injury at 125 g/ha: 125 g ai/ha, visual injury on 0 to 100 scale (0 no effect, 100 complete control), read-out: Wheat plant response rating; for plant injury at 500 g/ha: 500 g ai/ha, visual injury, 0 to 100 scale (0 no effect, 100 complete control), read-out: Plant response rating, Wheat
Procedure, shortened: as §1

[8] = test system: barnyardgrass (Echinochloa crus-galli); experiment: Test A postemergence; conditions: Echinochloa crus-galli, post-emergence, 240 h, read-out: Plant response rating, Barnyardgrass; for pest or weed control at 125 g/ha: 125 g ai/ha, Postemergence, visual injury after approximately 10 d, 0 to 100 scale where 0 is no effect and 100 is complete control; for pest or weed control at 500 g/ha: 500 g ai/ha, postemergence, visual injury, 0 to 100 scale (0 no effect, 100 complete control), approx. 10 d
Procedure, shortened: as §1

[9] = test system: Kochia (Kochia scoparia); experiment: Test A postemergence; conditions: Bassia scoparia, post-emergence, 240 h, postemergence, approx. 10 d; for pest or weed control at 125 g/ha: 125 g ai/ha, visual injury on 0 to 100 scale (0 no effect, 100 complete control), read-out: Kochia plant response rating; for pest or weed control at 500 g/ha: 500 g ai/ha, visual injury, 0 to 100 scale (0 no effect, 100 complete control), read-out: Plant response rating, Kochia
Procedure, shortened: as §1

[10] = test system: pigweed (Amaranthus retroflexus); experiment: Test A postemergence; conditions: Amaranthus retroflexus, post-emergence, 240 h, postemergence, approx. 10 d; for pest or weed control at 125 g/ha: 125 g ai/ha, visual injury on 0 to 100 scale (0 no effect, 100 complete control), read-out: Pigweed plant response rating; for pest or weed control at 500 g/ha: 500 g ai/ha, visual injury, 0 to 100 scale (0 no effect, 100 complete control), read-out: Plant response rating, Pigweed
Procedure, shortened: as §1

[11] = test system: ryegrass, Italian (Italian ryegrass, Lolium multiflorum); experiment: Test A postemergence; conditions: Lolium multiflorum, post-emergence, 240 h, postemergence, approx. 10 d; for pest or weed control at 125 g/ha: 125 g ai/ha, visual injury on 0 to 100 scale (0 no effect, 100 complete control), read-out: Ryegrass, Italian plant response rating; for pest or weed control at 500 g/ha: 500 g ai/ha, visual injury, 0 to 100 scale (0 no effect, 100 complete control), read-out: Plant response rating, Ryegrass, Italian
Procedure, shortened: as §1

[12] = test system: ragweed (common ragweed, Ambrosia elatior); experiment: Test A postemergence; conditions: Ambrosia artemisiifolia, post-emergence, 240 h, postemergence, approx. 10 d; for pest or weed control at 125 g/ha: 125 g ai/ha, visual injury on 0 to 100 scale (0 no effect, 100 complete control), read-out: Ragweed plant response rating; for pest or weed control at 500 g/ha: 500 g ai/ha, visual injury, 0 to 100 scale (0 no effect, 100 complete control), read-out: Plant response rating, Ragweed
Procedure, shortened: as §1

[13] = test system: blackgrass (Alopecurus myosuroides); experiment: Test A postemergence; conditions: Alopecurus myosuroides, post-emergence, 240 h, read-out: Plant response rating, Blackgrass; for pest or weed control at 125 g/ha: 125 g ai/ha, Postemergence, visual injury after approximately 10 d, 0 to 100 scale where 0 is no effect and 100 is complete control; for pest or weed control at 500 g/ha: 500 g ai/ha, postemergence, visual injury, 0 to 100 scale (0 no effect, 100 complete control), approx. 10 d
Procedure, shortened: as §1

[14] = test system: corn (Zea mays); experiment: Test A postemergence; conditions: Zea mays, post-emergence, 240 h; for Corn plant response rating (crop injury, 0 = no effect, 100 = complete kill) at 125 g/ha: 125 g ai/ha, Postemergence, visual injury after approximately 10 d, 0 to 100 scale where 0 is no effect and 100 is complete control; for Corn plant response rating (crop injury, 0 = no effect, 100 = complete kill) at 500 g/ha: 500 g ai/ha, postemergence, visual injury, 0 to 100 scale (0 no effect, 100 complete control), approx. 10 d
Procedure, shortened: as §1

[15] = test system: Galium (catchweed bedstraw, Galium aparine); experiment: Test A postemergence; conditions: Galium, post-emergence, 240 h, postemergence, approx. 10 d; for pest or weed control at 125 g/ha: 125 g ai/ha, visual injury on 0 to 100 scale (0 no effect, 100 complete control), read-out: Galium plant response rating; for pest or weed control at 500 g/ha: 500 g ai/ha, visual injury, 0 to 100 scale (0 no effect, 100 complete control), read-out: Plant response rating, Galium
Procedure, shortened: as §1

[16] = test system: giant foxtail (Setaria faberii); experiment: Test A postemergence; conditions: Setaria faberi, post-emergence, 240 h, postemergence, approx. 10 d; for pest or weed control at 125 g/ha: 125 g ai/ha, visual injury on 0 to 100 scale (0 no effect, 100 complete control), read-out: Foxtail, Giant plant response rating; for pest or weed control at 500 g/ha: 500 g ai/ha, visual injury, 0 to 100 scale (0 no effect, 100 complete control), read-out: Plant response rating, Foxtail, Giant
Procedure, shortened: as §1

Row | Compound | pest or weed control at 125 g/ha [1] [%] | pest or weed control at 500 g/ha [1] [%] | pest or weed control at 125 g/ha [2] [%] | pest or weed control at 500 g/ha [2] [%] | pest or weed control at 125 g/ha [3] [%] | pest or weed control at 500 g/ha [3] [%] | pest or weed control at 125 g/ha [4] [%] | pest or weed control at 500 g/ha [4] [%] | pest or weed control at 125 g/ha [5] [%] | pest or weed control at 500 g/ha [5] [%] | pest or weed control at 125 g/ha [6] [%] | pest or weed control at 500 g/ha [6] [%] | plant injury at 125 g/ha [7] [%] | pest or weed control at 125 g/ha [8] [%] | pest or weed control at 500 g/ha [8] [%] | pest or weed control at 125 g/ha [9] [%] | pest or weed control at 500 g/ha [9] [%] | pest or weed control at 125 g/ha [10] [%] | pest or weed control at 125 g/ha [11] [%] | pest or weed control at 125 g/ha [12] [%] | also measured
1 | CC(C)COc1cccc([C@H]2CN(C)C(=O)[C@@H]2C(=O)Nc2cccc(F)c2F)c1 [Compound 1029] | 90 | 90 | 0 | 90 | 0 | 0 | 70 | 90 | 0 | 0 | 90 | 90 | 30 | 80 | 90 | 0 | 0 | 0 | 0 | 0 | plant injury at 500 g/ha [7]: 60%; pest or weed control at 500 g/ha [10]: 0%; pest or weed control at 500 g/ha [11]: 40%; pest or weed control at 500 g/ha [12]: 0%; pest or weed control at 125 g/ha [13]: 30%; pest or weed control at 500 g/ha [13]: 40%; Corn plant response rating (crop injury, 0 = no effect, 100 = complete kill) at 125 g/ha [14]: 50%; Corn plant response rating (crop injury, 0 = no effect, 100 = complete kill) at 500 g/ha [14]: 70%; pest or weed control at 125 g/ha [15]: 20%; pest or weed control at 500 g/ha [15]: 40%; pest or weed control at 125 g/ha [16]: 80%; pest or weed control at 500 g/ha [16]: 90%
2 | Cc1ccc([C@H]2CNC(=O)[C@@H]2C(=O)Nc2ccccc2S(C)(=O)=O)cc1C [Compound 1037] | 80 | 90 | 40 | 90 | 0 | 20 | 50 | 70 | 0 | 60 | 20 | 80 | 0 | 70 | 90 | 0 | 20 | 0 | 0 | 20 | plant injury at 500 g/ha [7]: 30%; pest or weed control at 500 g/ha [10]: 0%; pest or weed control at 500 g/ha [11]: 50%; pest or weed control at 500 g/ha [12]: 30%; pest or weed control at 125 g/ha [13]: 0%; pest or weed control at 500 g/ha [13]: 20%; Corn plant response rating (crop injury, 0 = no effect, 100 = complete kill) at 125 g/ha [14]: 0%; Corn plant response rating (crop injury, 0 = no effect, 100 = complete kill) at 500 g/ha [14]: 30%; pest or weed control at 125 g/ha [15]: 40%; pest or weed control at 500 g/ha [15]: 60%; pest or weed control at 125 g/ha [16]: 0%; pest or weed control at 500 g/ha [16]: 30%
3 | Cc1ccc([C@H]2CN(C)C(=O)[C@@H]2C(=O)Nc2cccc(F)c2F)cc1C [Compound 1039] | 90 | 100 | 80 | 100 | 20 | 40 | 60 | 80 | 10 | 90 | 90 | 100 | 50 | 90 | 90 | 40 | 60 | 0 | 50 | 10 | pest or weed control at 125 g/ha [13]: 30%; pest or weed control at 500 g/ha [13]: 40%; Corn plant response rating (crop injury, 0 = no effect, 100 = complete kill) at 125 g/ha [14]: 70%; Corn plant response rating (crop injury, 0 = no effect, 100 = complete kill) at 500 g/ha [14]: 70%; pest or weed control at 125 g/ha [15]: 40%; pest or weed control at 500 g/ha [15]: 60%; pest or weed control at 125 g/ha [16]: 90%; pest or weed control at 500 g/ha [16]: 90%
